In patent publication US20260138990A1, “TRICYCLIC FUSED IMIDAZOLE COMPOUNDS AS CD38 MODULATORS AND USES THEREOF” (AEOVIAN PHARMACEUTICALS, INC., priority 2023, published 2026):
Where a name gives a salt, the structure may show the parent alone.

What was measured:
human CD38 = target: T1, human CD38 (Homo sapiens, UniProt P28907); assay: NAD+ cyclase activity assay with human recombinant CD38 protein (ε-NAD fluorescence); format: biochemical; details: 1.9 nM human CD38, substrate ε-NAD, 30 min preincubation, fluorescence 300/410 nm
T1 construct: purchased Bio-Techne GmbH AVI2404
T1 sequence (P28907 1-300): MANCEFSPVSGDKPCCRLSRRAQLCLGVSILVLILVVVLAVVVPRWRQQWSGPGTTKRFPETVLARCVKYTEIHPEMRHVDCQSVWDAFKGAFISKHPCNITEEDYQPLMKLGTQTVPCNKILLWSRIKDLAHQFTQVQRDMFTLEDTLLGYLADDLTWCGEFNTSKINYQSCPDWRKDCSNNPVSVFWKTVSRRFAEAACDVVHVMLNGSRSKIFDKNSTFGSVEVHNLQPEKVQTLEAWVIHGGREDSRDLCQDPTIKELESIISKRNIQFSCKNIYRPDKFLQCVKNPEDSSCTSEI
Procedure: (§1) Example 4: NAD^+ Cydase Activity Assay with Human or Mouse Recombinant CD38 Protein
(§2) The following assay was used to determine the ability of compounds of the invention to inhibit the hydrolysis of NAD^+ by the human or mouse enzyme, CD38.
(§3) Reaction buffer: 40 mM HEPES/NaOH pH 7.5, 250 mM sucrose, 0.01% Tween
(§4) Final concentrations: 0.6 nM mouse CD38 (4947-AC, Bio-Techne GmbH) 1.9 nM human CD38 (AVI2404, Bio-Techne GmbH)
(§5) Substrate: […] Nicotinamide 1,N6-ethenoadenine dinucleotide (&-NAD)
(§6) Read-out: Fluorescence intensity (extinction 300 nm/emission 410 nm)
(§7) Required reaction buffer, required CD38 concentration in reaction buffer and required e-NAD concentration in reaction buffer were prepared. Thereafter, 8 μL of CD38 in reaction buffer was added to High Control and compound concentration wells in 384 well plate (Corning #4514, 384 well, nonbinding surface, low volume, round bottom) and 8 μL of reaction buffer to Low Control. Compound dilutions were transferred via pintool technology that transfers 42.5 nL compound dilutions (12-point dose-response with factor three dilutions in 100% DMSO) well-to-well. Plate was subsequently shaken for 15 s at 1450 rpm and sealed for incubation for 30 min at room temperature. Thereafter, 2 μL of e-NAD in reaction buffer were added with Integra Voyager. After shaking for 15 s at 1450 rpm, plate was sealed, and assay signal were measured continuously with PHERAstar® fluorescence intensity module (extinction 300 nm/emission 410 nm).
(§8) Dose-response curves were constructed using twelve-pointfactor three dilutions in triplicates per plate. High control (full enzyme activity) was set to assay signal of CD38 and e-NAD in presence of vehicle (DMSO) and Low control (full enzyme inhibition) was set to assay signal of e-NAD and vehicle (DMSO) in absence of CD38. For data analysis, fluorescent signal of traces corresponding to each compound concentration and High and Low control were monitored over time. Each run, High Control (full enzyme activity) was fitted to Linear equation via GraphPad Prism to determine CD38 activity from the slope and determine the time interval of linear phase of reaction to account for minor fluctuations. Thereafter, slopes of all compound concentrations were determined via fitting to same linear equation (GraphPad Prism) over the same time interval as determined for High control. […] Unless otherwise stated, fitting of curves were fixed to 100%-inhibition and unlocked for 0%-inhibition.

mouse CD38 = target: T2, mouse CD38 (Mus musculus, UniProt P56528); assay: NAD+ cyclase activity assay with mouse recombinant CD38 protein (ε-NAD fluorescence); format: biochemical; details: 0.6 nM mouse CD38, substrate ε-NAD, 30 min preincubation, fluorescence 300/410 nm
T2 construct: purchased Bio-Techne GmbH 4947-AC
T2 sequence (P56528 1-304): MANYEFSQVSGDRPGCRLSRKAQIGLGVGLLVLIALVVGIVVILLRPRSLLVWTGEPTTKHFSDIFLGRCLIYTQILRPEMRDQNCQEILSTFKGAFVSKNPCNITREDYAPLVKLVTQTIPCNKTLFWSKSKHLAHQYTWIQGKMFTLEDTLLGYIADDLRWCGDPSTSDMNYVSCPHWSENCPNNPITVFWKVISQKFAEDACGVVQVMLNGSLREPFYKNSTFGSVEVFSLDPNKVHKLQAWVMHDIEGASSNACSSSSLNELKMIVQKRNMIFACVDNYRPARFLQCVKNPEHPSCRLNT
Procedure: as §1, §2, §3, §4, §5, §6, §7, §8

IC50 (human CD38)	IC50 (mouse CD38)	Compound
30 to 100 nM	10 to 100 nM	CC1(NC(=O)c2cc(F)c3c(c2)-c2cncn2CCO3)CCCCC1 [Compound 162A, 8-Fluoro-N-(1-methylcyclohexyl)-5,6-dihydrobenzo[f]imidazo[1,5-d][1,4]oxazepine-10-carboxamide]
< 30 nM	< 1 nM	O=C(N[C@@H]1CCCOC1)c1ccc2c(c1)-c1cncn1CCO2 [Compound 1A, (R)—N-(Tetrahydro-2H-pyran-3-yl)-5,6-dihydrobenzo[f]imidazo[1,5-d][1,4]oxazepine-10-carboxamide]
< 30 nM	1 to 10 nM	COCC1COc2cc(NC(=O)c3ccc4c(c3)-c3cncn3CCO4)cnc2O1 (stereo not drawn) [Compound 144A, N-(3-(Methoxymethyl)-2,3-dihydro-[1,4]dioxino[2,3-b]pyridin-7-yl)-5,6-dihydrobenzo[f]imidazo[1,5-d][1,4]oxazepine-10-carboxamide]
< 30 nM	1 to 10 nM	CC(C)(CO[C@H]1CC[C@H](NC(=O)c2ccc3c(c2)-c2cncn2CCO3)CC1)C(F)(F)F [Compound 120A, N-((1r,4r)-4-(3,3,3-Trifluoro-2,2-dimethylpropoxy)cyclohexyl)-5,6-dihydrobenzo[f]imidazo[1,5-d][1,4]oxazepine-10-carboxamide]
30 to 100 nM	10 to 100 nM	O=C(Nc1ccc2c(c1)CNC2)c1ccc2c(c1)-c1cncn1CCO2 [Compound 24A, N-(Isoindolin-5-yl)-5,6-dihydrobenzo[f]imidazo[1,5-d][1,4]oxazepine-10-carboxamide hydrochloride]
< 30 nM	< 1 nM	O=C(NC1CC(F)(F)C1)c1cc(F)c2c(c1)-c1cncn1CCO2 [Compound 135A, N-(3,3-Difluorocyclobutyl)-8-fluoro-5,6-dihydrobenzo[f]imidazo[1,5-d][1,4]oxazepine-10-carboxamide]
> 1000 nM	> 100 nM	COCCO[C@H]1CC[C@H](NC(=O)c2ccc3[nH]c(=O)c4cncn4c3c2)CC1 [Compound 11A, N-((1r,4r)-4-(2-Methoxyethoxy)cyclohexyl)-4-oxo-4,5-dihydroimidazo[1,5-a]quinoxaline-8-carboxamide]
< 30 nM	< 1 nM	O=C(NC1CCC(F)(F)CC1)c1cc(F)c2c(c1)-c1cncn1CCO2 [Compound 73A, N-(4,4-Difluorocyclohexyl)-8-fluoro-5,6-dihydrobenzo[f]imidazo[1,5-d][1,4]oxazepine-10-carboxamide]
100 to 1000 nM	> 100 nM	CS(=O)(=O)CCCO[C@H]1CC[C@@H](NC(=O)c2ccc3c(c2)-c2cncn2CCO3)CC1 [Compound 86A, N-((1s,4s)-4-(3-(Methylsulfonyl)propoxy)cyclohexyl)-5,6-dihydrobenzo[f]imidazo[1,5-d][1,4]oxazepine-10-carboxamide]
< 30 nM	< 1 nM	O=C(Nc1cnc2c(c1)OCCO2)c1cc(F)c2c(c1)-c1cncn1CCO2 [Compound 97A, N-(2,3-Dihydro-[1,4]dioxino[2,3-b]pyridin-7-yl)-8-fluoro-5,6-dihydrobenzo[f]imidazo[1,5-d][1,4]oxazepine-10-carboxamide]
< 30 nM	1 to 10 nM	O=C(Nc1ccc2c(c1)OCCO2)c1ccc2c(c1)-c1cncn1CCO2 [Compound 8A, N-(2,3-Dihydrobenzo[b][1,4]dioxin-6-yl)-5,6-dihydrobenzo[f]imidazo[1,5-d][1,4]oxazepine-10-carboxamide]
30 to 100 nM	10 to 100 nM	CS(=O)(=O)C1CCC(NC(=O)c2ccc3c(c2)-c2cncn2CCO3)CC1 (stereo not drawn) [Compound 146A, N-(4-(Methylsulfonyl)cyclohexyl)-5,6-dihydrobenzo[f]imidazo[1,5-d][1,4]oxazepine-10-carboxamide]
< 30 nM	1 to 10 nM	CCC1CCC(NC(=O)c2ccc3c(c2)-c2cncn2CCO3)CC1 (stereo not drawn) [Compound 125A, N-(4-Ethylcyclohexyl)-5,6-dihydrobenzo[f]imidazo[1,5-d][1,4]oxazepine-10-carboxamide]
< 30 nM	< 1 nM	O=C(Nc1ccc2c(c1)CCS2(=O)=O)c1ccc2c(c1)-c1cncn1CCO2 [Compound 19A, N-(1,1-Dioxido-2,3-dihydrobenzo[b]thiophen-5-yl)-5,6-dihydrobenzo[f]imidazo[1,5-d][1,4]oxazepine-10-carboxamide]
30 to 100 nM	1 to 10 nM	CC(C)(CO[C@H]1CC[C@H](NC(=O)c2cc(Cl)c3c(c2)-c2cncn2CCO3)CC1)C(F)(F)F [Compound 170A, 8-Chloro-N-((1r,4r)-4-(3,3,3-trifluoro-2,2-dimethylpropoxy)cyclohexyl)-5,6-dihydrobenzo[f]imidazo[1,5-d][1,4]oxazepine-10-carboxamide]
< 30 nM	1 to 10 nM	O=C(Nc1cnc2c(c1)OCCO2)c1cc(Cl)c2c(c1)-c1cncn1CCO2 [Compound 129A, 8-Chloro-N-(2,3-dihydro-[1,4]dioxino[2,3-b]pyridin-7-yl)-5,6-dihydrobenzo[f]imidazo[1,5-d][1,4]oxazepine-10-carboxamide]
< 30 nM	< 1 nM	O=C(N[C@H]1CC[C@H](N2CC(F)(F)C2)CC1)c1ccc2c(c1)-c1cncn1CCO2 [Compound 72A, N-((1r,4r)-4-(3,3-Difluoroazetidin-1-yl)cyclohexyl)-5,6-dihydrobenzo[f]imidazo[1,5-d][1,4]oxazepine-10-carboxamide]
30 to 100 nM	10 to 100 nM	O=C(N[C@H]1CC[C@@H](OCC(F)(F)F)CC1)c1cc(F)c2c(c1)-c1cncn1CCO2 [Compound 156A, 8-Fluoro-N-((1s,4s)-4-(2,2,2-trifluoroethoxy)cyclohexyl)-5,6-dihydrobenzo[f]imidazo[1,5-d][1,4]oxazepine-10-carboxamide]
< 30 nM	1 to 10 nM	O=C(Nc1cnc(NCC(F)(F)F)nc1)c1ccc2c(c1)-c1cncn1CCO2 [Compound 100A, N-(2-((2,2,2-Trifluoroethyl)amino)pyrimidin-5-yl)-5,6-dihydrobenzo[f]imidazo[1,5-d][1,4]oxazepine-10-carboxamide]
< 30 nM	< 1 nM	O=C(NC1CCC(F)(F)CC1)c1cc2c(c(F)c1F)OCCn1cncc1-2 [Compound 154A, N-(4,4-Difluorocyclohexyl)-8,9-difluoro-5,6-dihydrobenzo[f]imidazo[1,5-d][1,4]oxazepine-10-carboxamide]
< 30 nM	< 1 nM	O=C(N[C@@H]1CCC(F)(F)C1)c1cc(Cl)c2c(c1)-c1cncn1CCO2 [Compound 112A, (R)-8-Chloro-N-(3,3-difluorocyclopentyl)-5,6-dihydrobenzo[f]imidazo[1,5-d][1,4]oxazepine-10-carboxamide]

Compound	IC50 (human CD38)	IC50 (mouse CD38)
O=C(N[C@H]1CC[C@H](OC2CC(F)(F)C2)CC1)c1ccc2c(c1)-c1cncn1CCO2 [Compound 152A, N-((1r,4r)-4-(3,3-Difluorocyclobutoxy)cyclohexyl)-5,6-dihydrobenzo[f]imidazo[1,5-d][1,4]oxazepine-10-carboxamide]	< 30 nM	1 to 10 nM
O=C(N[C@H]1CC[C@H](OC2CC(F)(F)C2)CC1)c1cc(F)c2c(c1)-c1cncn1CCO2 [Compound 166A, N-((1r,4r)-4-(3,3-Difluorocyclobutoxy)cyclohexyl)-8-fluoro-5,6-dihydrobenzo[f]imidazo[1,5-d][1,4]oxazepine-10-carboxamide]	< 30 nM	1 to 10 nM
N-((1s,4s)-4-((Tetrahydrofuran-2-yl)methoxy)cyclohexyl)-5,6-dihydrobenzo[f]imidazo[1,5-d][1,4]oxazepine-10-carboxamide [Compound 75A]	> 1000 nM	> 100 nM
